Legend:
Assay type in all cases: in vivo
Setaria faberi (SETFA) [1] = experiment: Post-emergence herbicidal glasshouse test on Setaria faberi; details: post-emergence; 1000 g/h; evaluated after 13 days
How it was run: (§1)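 Scored on a five-point scale (1 = 0-19% to 5 = 80-100% damage) 13 days after treatment. Application rate 1000 g/h in acetone/water (50:50) containing 0.5% Tween 20, sprayed one day post-sowing for pre-emergence or eight days for post-emergence; glasshouse at 24/16° C, 14 h light, 65% humidity.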

[2] = system: Amaranthus retoflexus (AMARE); experiment: Pre-emergence herbicidal glasshouse test on Amaranthus retoflexus; details: pre-emergence; 1000 g/h; evaluated after 13 days
How it was run: as §1

[3] = system: Echinochloa crus-galli (ECHCG); experiment: Post-emergence herbicidal glasshouse test on Echinochloa crus-galli; details: post-emergence; 1000 g/h; evaluated after 13 days
How it was run: as §1

[4] = system: Amaranthus retoflexus (AMARE); experiment: Post-emergence herbicidal glasshouse test on Amaranthus retoflexus; details: post-emergence; 1000 g/h; evaluated after 13 days
How it was run: as §1

[5] = system: Ipomoea hederacea (IPOHE); experiment: Pre-emergence herbicidal glasshouse test on Ipomoea hederacea; details: pre-emergence; 1000 g/h; evaluated after 13 days
How it was run: as §1

[6] = system: Alopecurus myosuroides (ALOMY); experiment: Post-emergence herbicidal glasshouse test on Alopecurus myosuroides; details: post-emergence; 1000 g/h; evaluated after 13 days
How it was run: as §1

Setaria faberi (SETFA) [7] = experiment: Pre-emergence herbicidal glasshouse test on Setaria faberi; details: pre-emergence; 1000 g/h; evaluated after 13 days
How it was run: as §1

[8] = system: Echinochloa crus-galli (ECHCG); experiment: Pre-emergence herbicidal glasshouse test on Echinochloa crus-galli; details: pre-emergence; 1000 g/h; evaluated after 13 days
How it was run: as §1

[9] = system: Ipomoea hederacea (IPOHE); experiment: Post-emergence herbicidal glasshouse test on Ipomoea hederacea; details: post-emergence; 1000 g/h; evaluated after 13 days
How it was run: as §1

[10] = system: Alopecurus myosuroides (ALOMY); experiment: Pre-emergence herbicidal glasshouse test on Alopecurus myosuroides; details: pre-emergence; 1000 g/h; evaluated after 13 days
How it was run: as §1

Solanum nigrum (SOLNI) [11] = experiment: Post-emergence herbicidal glasshouse test on Solanum nigrum; details: post-emergence; 1000 g/h; evaluated after 13 days
How it was run: as §1

Solanum nigrum (SOLNI) [12] = experiment: Pre-emergence herbicidal glasshouse test on Solanum nigrum; details: pre-emergence; 1000 g/h; evaluated after 13 days
How it was run: as §1

CCCS(=O)(=O)Oc1c(-c2ccc(C(F)(F)F)cc2S(C)(=O)=O)cnn(C)c1=O [Compound 3.005, [2-methyl-5-[2-methylsulfonyl-4-(trifluoromethyl)phenyl]-3-oxo-pyridazin-4-yl]propane-1-sulfonate]
5 (5=80-100% damage): POST Application SETFA herbicidal damage (five point scale) (Setaria faberi (SETFA) [1]) | PRE Application AMARE herbicidal damage (five point scale) [2] | POST Application ECHCG herbicidal damage (five point scale) [3] | POST Application AMARE herbicidal damage (five point scale) [4] | POST Application ALOMY herbicidal damage (five point scale) [6] | PRE Application SETFA herbicidal damage (five point scale) (Setaria faberi (SETFA) [7]) | PRE Application ECHCG herbicidal damage (five point scale) [8] | POST Application IPOHE herbicidal damage (five point scale) [9] | PRE Application ALOMY herbicidal damage (five point scale) [10] | POST Application SOLNI herbicidal damage (five point scale) (Solanum nigrum (SOLNI) [11]) | PRE Application SOLNI herbicidal damage (five point scale) (Solanum nigrum (SOLNI) [12])
4 (4=60-79% damage): PRE Application IPOHE herbicidal damage (five point scale) [5]

Cc1ccc(S(=O)(=O)Oc2c(-c3ccc(C(F)(F)F)cc3S(C)(=O)=O)cnn(C)c2=O)cc1 [Compound 3.006, [2-methyl-5-[2-methylsulfonyl-4-(trifluoromethyl)phenyl]-3-oxo-pyridazin-4-yl]4-methylbenzenesulfonate]
5 (5=80-100% damage): POST Application SETFA herbicidal damage (five point scale) (Setaria faberi (SETFA) [1]) | PRE Application AMARE herbicidal damage (five point scale) [2] | POST Application ECHCG herbicidal damage (five point scale) [3] | POST Application AMARE herbicidal damage (five point scale) [4] | POST Application ALOMY herbicidal damage (five point scale) [6] | PRE Application SETFA herbicidal damage (five point scale) (Setaria faberi (SETFA) [7]) | PRE Application ECHCG herbicidal damage (five point scale) [8] | POST Application IPOHE herbicidal damage (five point scale) [9] | PRE Application ALOMY herbicidal damage (five point scale) [10] | POST Application SOLNI herbicidal damage (five point scale) (Solanum nigrum (SOLNI) [11]) | PRE Application SOLNI herbicidal damage (five point scale) (Solanum nigrum (SOLNI) [12])
4 (4=60-79% damage): PRE Application IPOHE herbicidal damage (five point scale) [5]

CCn1ncc(-c2ccc(C(F)(F)F)nc2S(C)(=O)=O)c(O)c1=O [Compound 4.001]
5 (5=80-100% damage): POST Application SETFA herbicidal damage (five point scale) (Setaria faberi (SETFA) [1]) | PRE Application AMARE herbicidal damage (five point scale) [2] | POST Application ECHCG herbicidal damage (five point scale) [3] | POST Application AMARE herbicidal damage (five point scale) [4] | PRE Application IPOHE herbicidal damage (five point scale) [5] | POST Application ALOMY herbicidal damage (five point scale) [6] | PRE Application SETFA herbicidal damage (five point scale) (Setaria faberi (SETFA) [7]) | PRE Application ECHCG herbicidal damage (five point scale) [8] | POST Application IPOHE herbicidal damage (five point scale) [9] | PRE Application ALOMY herbicidal damage (five point scale) [10] | POST Application SOLNI herbicidal damage (five point scale) (Solanum nigrum (SOLNI) [11]) | PRE Application SOLNI herbicidal damage (five point scale) (Solanum nigrum (SOLNI) [12])

Cn1ncc(-c2ccc(C(F)(F)F)nc2S(C)(=O)=O)c(O)c1=O [Compound 4.003]
5 (5=80-100% damage): POST Application SETFA herbicidal damage (five point scale) (Setaria faberi (SETFA) [1]) | PRE Application AMARE herbicidal damage (five point scale) [2] | POST Application ECHCG herbicidal damage (five point scale) [3] | POST Application AMARE herbicidal damage (five point scale) [4] | PRE Application IPOHE herbicidal damage (five point scale) [5] | POST Application ALOMY herbicidal damage (five point scale) [6] | PRE Application SETFA herbicidal damage (five point scale) (Setaria faberi (SETFA) [7]) | PRE Application ECHCG herbicidal damage (five point scale) [8] | POST Application IPOHE herbicidal damage (five point scale) [9] | PRE Application ALOMY herbicidal damage (five point scale) [10] | POST Application SOLNI herbicidal damage (five point scale) (Solanum nigrum (SOLNI) [11]) | PRE Application SOLNI herbicidal damage (five point scale) (Solanum nigrum (SOLNI) [12])

COc1nc(C(F)(F)F)ccc1-c1cnn(C)c(=O)c1O [Compound 4.005]
1 (1=0-19% damage): POST Application SETFA herbicidal damage (five point scale) (Setaria faberi (SETFA) [1]) | POST Application ECHCG herbicidal damage (five point scale) [3] | PRE Application IPOHE herbicidal damage (five point scale) [5] | POST Application ALOMY herbicidal damage (five point scale) [6] | PRE Application SETFA herbicidal damage (five point scale) (Setaria faberi (SETFA) [7]) | PRE Application ECHCG herbicidal damage (five point scale) [8] | PRE Application ALOMY herbicidal damage (five point scale) [10] | PRE Application SOLNI herbicidal damage (five point scale) (Solanum nigrum (SOLNI) [12])
2 (2=20-39% damage): POST Application IPOHE herbicidal damage (five point scale) [9]
5 (5=80-100% damage): PRE Application AMARE herbicidal damage (five point scale) [2] | POST Application AMARE herbicidal damage (five point scale) [4]
3 (3=40-59% damage): POST Application SOLNI herbicidal damage (five point scale) (Solanum nigrum (SOLNI) [11])

Cn1ncc(-c2ccc(C(F)(F)F)nc2O)c(O)c1=O [Compound 4.006]
2 (2=20-39% damage): POST Application IPOHE herbicidal damage (five point scale) [9]
4 (4=60-79% damage): POST Application SOLNI herbicidal damage (five point scale) (Solanum nigrum (SOLNI) [11])
1 (1=0-19% damage): POST Application SETFA herbicidal damage (five point scale) (Setaria faberi (SETFA) [1]) | PRE Application AMARE herbicidal damage (five point scale) [2] | POST Application ECHCG herbicidal damage (five point scale) [3] | PRE Application IPOHE herbicidal damage (five point scale) [5] | POST Application ALOMY herbicidal damage (five point scale) [6] | PRE Application SETFA herbicidal damage (five point scale) (Setaria faberi (SETFA) [7]) | PRE Application ECHCG herbicidal damage (five point scale) [8] | PRE Application ALOMY herbicidal damage (five point scale) [10] | PRE Application SOLNI herbicidal damage (five point scale) (Solanum nigrum (SOLNI) [12])
3 (3=40-59% damage): POST Application AMARE herbicidal damage (five point scale) [4]

Cn1ncc(-c2ccc(C(F)(F)F)nc2Oc2ccccc2)c(O)c1=O [Compound 4.008]
2 (2=20-39% damage): POST Application SETFA herbicidal damage (five point scale) (Setaria faberi (SETFA) [1]) | POST Application ECHCG herbicidal damage (five point scale) [3]
1 (1=0-19% damage): PRE Application IPOHE herbicidal damage (five point scale) [5] | POST Application ALOMY herbicidal damage (five point scale) [6] | PRE Application SETFA herbicidal damage (five point scale) (Setaria faberi (SETFA) [7]) | PRE Application ECHCG herbicidal damage (five point scale) [8] | PRE Application ALOMY herbicidal damage (five point scale) [10] | PRE Application SOLNI herbicidal damage (five point scale) (Solanum nigrum (SOLNI) [12])
4 (4=60-79% damage): POST Application IPOHE herbicidal damage (five point scale) [9]
5 (5=80-100% damage): PRE Application AMARE herbicidal damage (five point scale) [2] | POST Application AMARE herbicidal damage (five point scale) [4] | POST Application SOLNI herbicidal damage (five point scale) (Solanum nigrum (SOLNI) [11])

Cn1ncc(-c2ccc(C(F)(F)F)nc2OCc2cccc(Cl)c2)c(O)c1=O [Compound 4.009]
4 (4=60-79% damage): POST Application AMARE herbicidal damage (five point scale) [4]
5 (5=80-100% damage): POST Application SOLNI herbicidal damage (five point scale) (Solanum nigrum (SOLNI) [11])
1 (1=0-19% damage): POST Application SETFA herbicidal damage (five point scale) (Setaria faberi (SETFA) [1]) | POST Application ECHCG herbicidal damage (five point scale) [3] | PRE Application IPOHE herbicidal damage (five point scale) [5] | POST Application ALOMY herbicidal damage (five point scale) [6] | PRE Application SETFA herbicidal damage (five point scale) (Setaria faberi (SETFA) [7]) | PRE Application ECHCG herbicidal damage (five point scale) [8] | POST Application IPOHE herbicidal damage (five point scale) [9] | PRE Application ALOMY herbicidal damage (five point scale) [10] | PRE Application SOLNI herbicidal damage (five point scale) (Solanum nigrum (SOLNI) [12])
3 (3=40-59% damage): PRE Application AMARE herbicidal damage (five point scale) [2]

Reference: patent publication US9693556B2, “Herbicidal pyridazinone derivatives” (SYNGENTA LIMITED, priority 2011, dated 2017)
